Reference: patent publication US5134137A, “Cephalosporin antibiotics” (The Upjohn Company, priority 1990, dated 1992)
≈ marks a conversion by molar mass, not a printed value. Like-named read-outs stand apart in the source and are kept apart here. One block for each molecule: values may come before it.

Experiments:
Pseudomonas aeruginosa = assay: MIC, agar dilution, Pseudomonas aeruginosa; assay type: cell-based; details: Pseudomonas aeruginosa, ATCC27853; strain ATCC 27853; read-out: MIC
Protocol: (§1) Stock solution of each test antibiotic compound were prepared to have a concentration of 2 mg. of the test compound per milliliter in sterile water of 0.1M ammonium acetate solution. The amount of each compound used was adjusted for base compound activity as calculated from the purity data for the selected batch of compound.
(§2) The dilution procedure described by Washington and Sutter [Manual of Clinical Microbiology, 3rd, Edit. (Lennett, E. H. et al, Eds.), pp. 453-458 (1980), American Society for Microbiology, Washington, D.C.] was modified so that serial concentrations of 128 to 0.0625 microgram/ml. in sterile water was obtained. Then 1.5 ml. aliquots of these test antibiotic dilution mixtures are added to 13.5 molten (50° C.) Mueller-Hinton agar. Each resulting mixture is poured into 15×100 mm, sterile Petri plates and allowed to dry at room temperature overnight.
(§3) Test bacterial cultures are maintained at -70° C. on glass beads. [See R. J. Yancey, Jr. et al, Amer. Jr. of Vet. Research, 48, No. 7, pp. 1050-1053, (1987)]. At least one bacteria-laden bead per culture is dropped into one ml. of brain heart infusion (BHI) broth for overnight culture at 37° C. in 5% V/V carbon dioxide in air atmosphere.
(§4) On the data of assay, 2 to 8 drops of the bacterial broth cultures are transferred to fresh BHI broth (1 ml.) and the mixture is incubated for 4 to 6 hours at 37° C. in a 5% V/V carbon dioxide in air atmosphere. The resulting cultures are then diluted to match a 0.5 MacFarland standard and further diluted 1:20 V/V with sterile saline solution.
(§5) A 0.001 ml. drop of the resulting mixture, containing approximately 10^3 to 10^4 colony forming units (CFU) of each test bacteria organism, is dispensed onto the surface of the test antibiotic compound test plates with a Steer's type replicator. The resulting innoculated plates are incubated 16 to 18 hours at 37° C. with a carbon dioxide atmosphere.
as §1, with “Stock solutions” for “Stock solution”
as §2, with “mm.” for “mm,”
as §2, with “for Microbiology.” for “for Microbiology,”, “15×100 mm.” for “15×100 mm,”
as §3, with “culture” for “cultures”
(§6) On the day of assay, 2 to 8 drops of the bacterial broth cultures are transferred to fresh BHI broth (1 ml.) and the mixture is incubated for 4 to 6 hours at 37° C. in a 5% V/V carbon dioxide in air atmosphere. […]

Pasteurella hemolytica = assay: MIC (minimum inhibitory concentration), agar dilution, Pasteurella hemolytica; assay type: cell-based; details: Pasteurella, read-out: MIC
Protocol: as §1, §2, §3, §4, §5
as §1, with “Stock solutions” for “Stock solution”
as §2, with “mm.” for “mm,”
as §2, with “for Microbiology.” for “for Microbiology,”, “15×100 mm.” for “15×100 mm,”
as §3, with “culture” for “cultures”
as §6

[1] = Serum half life / duration of antibiotic action; details: inferred from results against Salmonella typhimurium
Streptococcus agalactiae = assay: MIC, agar dilution, Streptococcus agalactiae; assay type: cell-based; details: Streptococcus agalactiae, read-out: MIC
Protocol: as §1, §2, §3, §4, §5
as §1, with “Stock solutions” for “Stock solution”
as §2, with “mm.” for “mm,”
as §2, with “for Microbiology.” for “for Microbiology,”, “15×100 mm.” for “15×100 mm,”
as §3, with “culture” for “cultures”
as §6

Staphylococcus aureus = assay: MIC, agar dilution, Staphylococcus aureus; assay type: cell-based; details: Staphylococcus aureus, read-out: MIC
Protocol: as §1, §2, §3, §4, §5
as §1, with “Stock solutions” for “Stock solution”
as §2, with “mm.” for “mm,”
as §2, with “for Microbiology.” for “for Microbiology,”, “15×100 mm.” for “15×100 mm,”
as §3, with “culture” for “cultures”
as §6

Micrococcus luteus = assay: MIC, agar dilution, Micrococcus luteus; assay type: cell-based; details: Micrococcus luteus; strain UC130; read-out: MIC
Protocol: as §1, §2, §3, §4, §5
as §1, with “Stock solutions” for “Stock solution”
as §2, with “mm.” for “mm,”
as §2, with “for Microbiology.” for “for Microbiology,”, “15×100 mm.” for “15×100 mm,”
as §3, with “culture” for “cultures”
as §6

Pasteurella multocida = assay: MIC, agar dilution, Pasteurella multocida; assay type: cell-based; details: Pasteurella multocida; strain UC9581; read-out: MIC
Protocol: as §1, §2, §3, §4, §5
as §1, with “Stock solutions” for “Stock solution”
as §2, with “mm.” for “mm,”
as §2, with “for Microbiology.” for “for Microbiology,”, “15×100 mm.” for “15×100 mm,”
as §3, with “culture” for “cultures”
as §6

Streptococcus uberis = assay: MIC, agar dilution, Streptococcus uberis; assay type: cell-based; details: Streptococcus uberis, read-out: MIC
Protocol: as §1, §2, §3, §4, §5
as §1, with “Stock solutions” for “Stock solution”
as §2, with “mm.” for “mm,”
as §2, with “for Microbiology.” for “for Microbiology,”, “15×100 mm.” for “15×100 mm,”
as §3, with “culture” for “cultures”
as §6

Escherichia coli = assay: MIC, agar dilution, Escherichia coli; assay type: cell-based; details: Escherichia coli, read-out: MIC
Protocol: as §1, §2, §3, §4, §5
as §1, with “Stock solutions” for “Stock solution”
as §2, with “mm.” for “mm,”
as §2, with “for Microbiology.” for “for Microbiology,”, “15×100 mm.” for “15×100 mm,”
as §3, with “culture” for “cultures”
as §6

Enterococcus faecium = assay: MIC, agar dilution, Enterococcus faecium; assay type: cell-based; details: Enterococcus faecium; strain UC241; read-out: MIC
Protocol: as §1, with “Stock solutions” for “Stock solution”
as §2, §3, §4, §5, §1
as §2, with “mm.” for “mm,”
as §2, with “for Microbiology.” for “for Microbiology,”, “15×100 mm.” for “15×100 mm,”
as §3, with “culture” for “cultures”
as §6

[2] = system: Bordetella bronchiseptica; assay: MIC, agar dilution, Bordetella bronchiseptica; assay type: cell-based; details: Bordetella bronchiseptica; strain UC6313; read-out: MIC
Protocol: as §1, §2, §3, §4, §5
as §1, with “Stock solutions” for “Stock solution”
as §2, with “mm.” for “mm,”
as §2, with “for Microbiology.” for “for Microbiology,”, “15×100 mm.” for “15×100 mm,”
as §3, with “culture” for “cultures”
as §6

Enterococcus faecalis = assay: MIC, agar dilution, Enterococcus faecalis; assay type: cell-based; details: Enterococcus faecalis; strain UC694; read-out: MIC
Protocol: as §1, with “Stock solutions” for “Stock solution”
as §2, §3, §4, §5, §1
as §2, with “mm.” for “mm,”
as §2, with “for Microbiology.” for “for Microbiology,”, “15×100 mm.” for “15×100 mm,”
as §3, with “culture” for “cultures”
as §6

Salmonella choleraesuis = assay: MIC, agar dilution, Salmonella choleraesuis; assay type: cell-based; details: Salmonella enterica, read-out: MIC
Protocol: as §1, §2, §3, §4, §5
as §1, with “Stock solutions” for “Stock solution”
as §2, with “mm.” for “mm,”
as §2, with “for Microbiology.” for “for Microbiology,”, “15×100 mm.” for “15×100 mm,”
as §3, with “culture” for “cultures”
as §6

Salmonella typhimurium [3] = assay: MIC, agar dilution, Salmonella typhimurium; assay type: cell-based; details: Salmonella enterica, read-out: MIC
Protocol: as §1, §2, §3, §4, §5
as §1, with “Stock solutions” for “Stock solution”
as §2, with “mm.” for “mm,”
as §2, with “for Microbiology.” for “for Microbiology,”, “15×100 mm.” for “15×100 mm,”
as §3, with “culture” for “cultures”
as §6

Corynebacterium pyogenes = assay: MIC, agar dilution, Corynebacterium pyogenes; assay type: cell-based; details: strain 213-2; read-out: MIC
Protocol: as §1, §2, §3, §4, §5
as §1, with “Stock solutions” for “Stock solution”
as §2, with “mm.” for “mm,”
as §2, with “for Microbiology.” for “for Microbiology,”, “15×100 mm.” for “15×100 mm,”
as §3, with “culture” for “cultures”
as §6

[4] = system: Streptococcus dysgalactiae; assay: MIC, agar dilution, Streptococcus dysgalactiae; assay type: cell-based; details: Streptococcus dysgalactiae; strain UC251; read-out: MIC
Protocol: as §1, §2, §3, §4, §5
as §1, with “Stock solutions” for “Stock solution”
as §2, with “mm.” for “mm,”
as §2, with “for Microbiology.” for “for Microbiology,”, “15×100 mm.” for “15×100 mm,”
as §3, with “culture” for “cultures”
as §6

Streptococcus suis = assay: MIC, agar dilution, Streptococcus suis; assay type: cell-based; details: Streptococcus suis; strain 650-2; read-out: MIC
Protocol: as §1, §2, §3, §4, §5
as §1, with “Stock solutions” for “Stock solution”
as §2, with “mm.” for “mm,”
as §2, with “for Microbiology.” for “for Microbiology,”, “15×100 mm.” for “15×100 mm,”
as §3, with “culture” for “cultures”
as §6

Streptococcus bovis = assay: MIC, agar dilution, Streptococcus bovis; assay type: cell-based; details: Streptococcus equinus; strain UC6281; read-out: MIC
Protocol: as §1, §2, §3, §4, §5
as §1, with “Stock solutions” for “Stock solution”
as §2, with “mm.” for “mm,”
as §2, with “for Microbiology.” for “for Microbiology,”, “15×100 mm.” for “15×100 mm,”
as §3, with “culture” for “cultures”
as §6

P. hemolytica = assay: Systemic infection model in mice, ED50, P. hemolytica; assay type: in vivo; details: Mus musculus, sc, 144 h, strain UC6532, lactamase producing, subcutaneous, 0, 24, 48 hours post infection, 50% survival six days post infection, per day, read-out: ED50 (95% confidence limits)
Protocol: (§7) Experimental Infections and Antitiotic Treatment (for ED50 in mice tests).
(§8) Mice are infected and treated with the test antibiotic compound according to procedures described previously [Yancey, Jr., R. J. et at. supra].
(§9) The test antibiotic compound is administered subcutaneously immediately following infection, then at 24 hours and 48 hours post infection. The medium effective dose (ED50) number is determined for all infections. The ED50 value is defined as the calculated concentration of the test antibiotic compound in mg. of compound per kilogram of mouse body weight per day at which 50% of the animals survived six days post infection.

Salmonella typhimurium [5] = assay: Systemic infection model in mice, ED50, Salmonella typhimurium; assay type: in vivo; details: Salmonella enterica, TYPHIMURIUM / UC6164, sc, 144 h, strain UC6164, lactamase producing, subcutaneous, 0, 24, 48 hours post infection, 50% survival six days post infection, per day, read-out: ED50 (95% confidence limits)
Protocol: as §7, §8, §9

MIC (Pseudomonas aeruginosa): > 32 µg/mL | serum half life [1]: longer serum half life | MIC (Streptococcus agalactiae; strain UC3947): ≤ 0.06 µg/mL | MIC (Streptococcus agalactiae; strain UC6892): ≤ 0.06 µg/mL | MIC (Staphylococcus aureus; strain UC6093): 4 µg/mL (≈ 8.22 µM) | MIC (Staphylococcus aureus; strain UC6097): 4 µg/mL (≈ 8.22 µM) | MIC (Staphylococcus aureus; strain UC9203): 4 µg/mL (≈ 8.22 µM) | MIC (Micrococcus luteus): 0.25 µg/mL (≈ 0.514 µM) | MIC (Pasteurella multocida): ≤ 0.06 µg/mL | MIC (Streptococcus uberis; strain UC3946): 0.13 µg/mL (≈ 0.267 µM) | MIC (Streptococcus uberis; strain UC6159): 32 µg/mL (≈ 65.8 µM) | MIC (Escherichia coli; strain UC3784): 1 µg/mL (≈ 2.06 µM) | MIC (Escherichia coli; strain UC6720): 1 µg/mL (≈ 2.06 µM) | MIC (Escherichia coli; strain UC9670): 1 µg/mL (≈ 2.06 µM) | MIC (Enterococcus faecium): > 32 µg/mL | MIC [2]: > 32 µg/mL | MIC (Enterococcus faecalis): > 32 µg/mL | MIC (Salmonella typhimurium [3]; TYPHIMURIUM / UC6162, strain UC6162): 1 µg/mL (≈ 2.06 µM) | MIC (Salmonella typhimurium [3]; TYPHIMURIUM / UC6164, strain UC6164): 1 µg/mL (≈ 2.06 µM) | MIC (Corynebacterium pyogenes): 16 µg/mL (≈ 32.9 µM) | MIC [4]: ≤ 0.06 µg/mL | MIC (Streptococcus suis): 0.13 µg/mL (≈ 0.267 µM) | MIC (Streptococcus bovis): 0.13 µg/mL (≈ 0.267 µM)
Compound: CO/N=C(\C(=O)N[C@@H]1C(=O)N2C(C(=O)O)=C(CSCC(N)=O)CS[C@H]12)c1csc(N)n1 [Example 7, 7-[2-(2-amino-1,3-thiazol-4-yl)-2-(methoxyimino)acetamido]-3-(aminocarbonylmethylthiomethyl)-3-cephem-4-carboxylic acid]
MIC (Pasteurella hemolytica; strain UC6531): ≤ 0.06 µg/mL | MIC (Pasteurella hemolytica; strain UC6532): ≤ 0.06 µg/mL | MIC (Pasteurella hemolytica; strain UC9582): ≤ 0.06 µg/mL | MIC (Salmonella choleraesuis; CHOLERAESUIS / UC6073, strain UC6073): 1 µg/mL (≈ 2.06 µM) | MIC (Salmonella choleraesuis; CHOLERAESUIS / UC6077, strain UC6077): 2 µg/mL (≈ 4.11 µM)

Compound: CC1(C)S[C@@H]2[C@H](NC(=O)[C@H](N)c3ccccc3)C(=O)N2[C@H]1C(=O)O [ampicillin]
ED50 (P. hemolytica): > 100 mg/kg | ED50 (Salmonella typhimurium [5]): > 100 mg/kg
